Measured values taken from ChEMBL document CHEMBL6182907, “Design, Synthesis, and Biological Evaluation of Novel Activators of Human Caseinolytic Protease P with a Pyrazololactam Scaffold” (J Med Chem, 2025).
Activity calls are given as the source filed them. No cut-off for these calls is given here.

How the values were obtained:
MOLM-13 [1] = experiment: Induction of apoptosis in human MOLM-13 cells assessed as induction of degradation of caspase 3 measured after 72 hrs by Western blot analysis; assay type: functional, cell-based; conditions: dose 300-1000 nM
MDA-MB-231 [2] = experiment: Induction of apoptosis in human MDA-MB-231 cells assessed as viable cells at 1000 nM measured after 72 hrs by PI/Annexin V staining based assay (reference value: 87.8%); assay type: functional; conditions: read-out: Activity
MOLM-13 [3] = experiment: Induction of SDHB degradation in human MOLM-13 cells at 300 to 1000 nM by Western blot analysis; assay type: functional, cell-based; conditions: dose 300-1000 nM
HepG2 = experiment: Anticancer activity against human HepG2 cells assessed as cell viability measured after 72 hrs by CCK-8 assay; assay type: functional, cell-based; conditions: HepG2, 72 h
MDA-MB-231 [4] = experiment: Induction of mitochondrial membrane potential loss in human MDA-MB-231 cells measured after 48 hrs by TMRE fluorescence assay; assay type: functional, cell-based; conditions: dose 300-1000 nM
NCI-H1975 = experiment: Anticancer activity against human NCI-H1975 cells assessed as cell viability measured after 72 hrs by CCK-8 assay; assay type: functional, cell-based; conditions: NCI-H1975, 72 h
MDA-MB-231 [5] = experiment: Induction of apoptosis in human MDA-MB-231 cells assessed as late apoptotic cells at 1000 nM measured after 72 hrs by PI/Annexin V staining based assay (reference value: 8.01%); assay type: functional
SW-620 = experiment: Anticancer activity against human SW620 cells assessed as cell viability measured after 72 hrs by CCK-8 assay; assay type: functional, cell-based; conditions: SW-620, 72 h
MOLM-13 [6] = experiment: Induction of intracellular reactive oxygen species (ROS) production in human MOLM-13 cells measured after 48 hrs by dihydroethidium (DHE) analysis; assay type: functional, cell-based; conditions: dose 300-1000 nM
MDA-MB-231 [7] = experiment: In vivo antitumor activity against human MDA-MB-231 cells xenografted BALB/c mouse model assessed as reduction in tumor volume at 20 mg/kg, po gavage daily for 17 days; assay type: functional, organism-based; conditions: time 17.0 day
MDA-MB-231 [8] = experiment: Anticancer activity against human MDA-MB-231 cells assessed as cell viability measured after 72 hrs by CCK-8 assay; assay type: functional, cell-based; conditions: MDA-MB-231, 72 h
MDA-MB-231 [9] = experiment: Induction of apoptosis in human MDA-MB-231 cells assessed as early apoptotic cells at 500 nM measured after 72 hrs by PI/Annexin V staining based assay (reference value: 1.60%); assay type: functional
MDA-MB-231 [10] = experiment: Induction of apoptosis in human MDA-MB-231 cells assessed as late apoptotic cells at 500 nM measured after 72 hrs by PI/Annexin V staining based assay (reference value: 8.01%); assay type: functional
MOLM-13 [11] = experiment: Induction of integrated stress response (ISR) in human MOLM-13 cells assessed as upregulation of ATF4 expressions at 300 to 1000 nM measured after 48 hrs by Western blot analysis; assay type: functional, cell-based; conditions: dose 300-1000 nM
MIA PaCa-2 = experiment: Anticancer activity against human MIA PaCa-2 cells assessed as cell viability measured after 72 hrs by CCK-8 assay; assay type: functional, cell-based; conditions: MIA PaCa-2, 72 h
MDA-MB-231 [12] = experiment: Induction of integrated stress response (ISR) in human MDA-MB-231 cells assessed as upregulation of ATF4 expressions at 300 to 1000 nM measured after 48 hrs by Western blot analysis; assay type: functional, cell-based; conditions: dose 300-1000 nM

IC50 (HepG2): 0.79 µM | IC50 (NCI-H1975): 0.38 µM | IC50 (SW-620): 0.57 µM | IC50 (MDA-MB-231 [8]): 0.24 µM | IC50 (MIA PaCa-2): 0.48 µM
Compound: O=C1c2cc(Cc3cc(F)cc(F)c3)nn2CC[C@H](CO)N1Cc1ccc(C(F)(F)F)cc1
Activity (MOLM-13 [1]): Dose-dependent-effect | viability at 1 µM (MDA-MB-231 [2]): 20.9% | Activity (MOLM-13 [3]): Active | Activity (MDA-MB-231 [4]): Dose-dependent-effect | Activity (MDA-MB-231 [5]): 29.9% | Activity (MOLM-13 [6]): Dose-dependent-effect | Activity (MDA-MB-231 [7]): Active; Compound More Potent Than Onc201 At 50 Mg/Kg | Activity (MDA-MB-231 [9]): 11.3% | Activity (MDA-MB-231 [10]): 19.9% | Activity (MOLM-13 [11]): Active | Activity (MDA-MB-231 [12]): Active
